{"source": "patent US10440974B2", "about": "“Methionine-rich composition for feeding animals” (Evonik Degussa GmbH, priority 2009, dated 2019)", "key": {"broiler chickens": {"test_system": "broiler chickens", "procedure": "The crude methionine previously obtained in solid form is added to a basic feed for broiler chickens.\nThe basic feed has the following composition:\nThe animals are divided up into groups and fed with the basic feed as control, or with a feed supplemented with crude methionine according to the invention, and then weighed at 1 day, 14 days and 28 days."}, "physchem": {"experiment": "physchem", "description": "The third step consists in crystallizing the methionine so as to recover the crude methionine in solid form. This crystallization step can be carried out by means of technology chosen from the group consisting of crystallization by cooling, crystallization by evaporation-crystallization and adiabatic crystallization. The applicant company recommends using evaporation-crystallization. If evaporation-crystallization is selected, the applicant company recommends pre-concentrating the crude methionine solution by vacuum evaporation using a falling-film evaporator in order to approach supersaturation. The pre-concentrated solution is therefore transferred into a crystallizer of Draft tube type, for example, so as to be further concentrated and crystallized therein. […] Under these conditions, and by virtue of the removal of the soluble impurities, the solid methionine crystallizes in the form of spongy spheres which are easy to separate from the mother liquors."}}, "data": [{"smiles": "CSCCC(N)C(=O)O", "note": "(racemic) [DL-methionine of chemical origin, DL-methionine]", "values": [{"measurement": "optimum efficiency, added methionine", "setting": "broiler chickens; added to basic feed", "result": "approximately 0.19%"}, {"measurement": "optimum efficiency, methionine in the final feed", "setting": "broiler chickens; basic feed has a methionine content of about 0.29%", "result": "approximately 0.48%"}]}, {"smiles": "CSCC[C@H](N)C(=O)O", "note": "[methionine, L-Methionine]", "values": [{"measurement": "solubility", "setting": "physchem; 35 °C", "result": "~70", "unit": "mg/mL"}, {"measurement": "supersaturation", "setting": "physchem; at 50° C.", "result": 80, "unit": "g/L"}]}]}
